From ChEMBL document CHEMBL3217704, “Combination of biotransformation by P450 BM3 mutants with on-line post-column bioaffinity and mass spectrometric profiling as a novel strategy to diversify and characterize p38 kinase inhibitors” (Medchemcomm, 2013)

Target: Mitogen-activated protein kinase 14 (Homo sapiens, UniProt Q16539)
Experiment: Displacement of SKF86002 from recombinant human p38alpha by fluorescence-based assay; call rule not given here

Mitogen-activated protein kinase 14, sequence (Q16539 whole entry): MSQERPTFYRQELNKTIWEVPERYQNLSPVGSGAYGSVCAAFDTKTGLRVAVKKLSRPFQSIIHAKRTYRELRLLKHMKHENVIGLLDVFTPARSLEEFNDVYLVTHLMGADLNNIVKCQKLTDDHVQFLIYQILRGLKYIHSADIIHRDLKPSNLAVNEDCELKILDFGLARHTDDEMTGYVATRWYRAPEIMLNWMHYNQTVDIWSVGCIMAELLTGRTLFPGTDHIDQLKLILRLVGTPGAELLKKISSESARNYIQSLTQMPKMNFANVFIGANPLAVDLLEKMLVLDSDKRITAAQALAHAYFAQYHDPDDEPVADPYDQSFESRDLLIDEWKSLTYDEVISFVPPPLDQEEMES

Row | SMILES | IC50 (read-out: IC50) [nM] | IC50
1 | CCc1nc(-c2cccc(CO)c2)c(-c2ccnc(NC(=O)c3ccccc3)c2)s1 | 310 | –
2 | CC(O)c1nc(-c2cccc(C(=O)O)c2)c(-c2ccnc(NC(=O)c3ccccc3)c2)s1 (stereo not given) | – | Not Active
3 | CC(O)c1nc(-c2cccc(CO)c2)c(-c2ccnc(NC(=O)c3ccccc3)c2)s1 (stereo not given) | 460 | –
4 | CCc1nc(-c2cccc(C(=O)O)c2)c(-c2ccnc(NC(=O)c3ccccc3)c2)s1 | 1500 | –
5 | Cc1cccc(-c2nc(C(C)O)sc2-c2ccnc(NC(=O)c3ccccc3)c2)c1 (stereo not given) | 38 | –
